These results are taken from patent publication US9371319B2, “Pyrrolopyridineamino derivatives as MPS1 inhibitors” (priority 2011, dated 2016).

The assay addresses T1, full length MPS1 (Homo sapiens, UniProt P33981).
T1 sequence (P33981 1-857): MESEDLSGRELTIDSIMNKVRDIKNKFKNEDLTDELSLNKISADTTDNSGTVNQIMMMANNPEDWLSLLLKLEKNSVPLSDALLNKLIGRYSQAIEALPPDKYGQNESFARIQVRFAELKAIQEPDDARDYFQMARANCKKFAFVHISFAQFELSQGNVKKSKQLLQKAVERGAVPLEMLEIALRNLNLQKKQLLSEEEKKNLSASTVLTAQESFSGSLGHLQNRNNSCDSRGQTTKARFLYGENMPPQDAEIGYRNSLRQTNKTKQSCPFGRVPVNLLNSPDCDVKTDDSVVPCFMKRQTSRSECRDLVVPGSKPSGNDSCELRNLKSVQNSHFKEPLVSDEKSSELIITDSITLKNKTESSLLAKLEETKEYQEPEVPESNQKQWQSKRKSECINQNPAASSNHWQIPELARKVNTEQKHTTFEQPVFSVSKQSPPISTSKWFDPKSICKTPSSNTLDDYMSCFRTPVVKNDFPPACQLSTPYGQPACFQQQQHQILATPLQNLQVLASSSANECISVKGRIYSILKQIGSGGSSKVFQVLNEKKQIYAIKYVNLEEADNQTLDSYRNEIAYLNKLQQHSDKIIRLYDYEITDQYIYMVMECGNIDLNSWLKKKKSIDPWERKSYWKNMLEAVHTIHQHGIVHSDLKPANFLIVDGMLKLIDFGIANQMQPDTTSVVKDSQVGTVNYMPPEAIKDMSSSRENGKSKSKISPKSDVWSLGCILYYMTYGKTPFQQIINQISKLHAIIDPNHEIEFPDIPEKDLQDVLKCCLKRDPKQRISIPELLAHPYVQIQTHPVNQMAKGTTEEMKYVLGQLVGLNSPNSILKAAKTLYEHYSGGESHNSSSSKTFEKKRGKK
The experiment in a line: biochemical.
Take `Cn1cc(-c2cc3cnc(Nc4ccc(-c5ccnn5C)cc4Cl)cc3[nH]2)cn1` [Example 149, N-(2-Chloro-4-(1-methyl-1H-pyrazol-5-yl)phenyl)-2-(1-methyl-1H-pyrazol-4-yl)-1H-pyrrolo[3,2-c]pyridin-6-amine]: the midpoint of inhibition, the IC50, lay at 0.022 µM.

As for `Cc1nc(C)c(-c2ccc(Nc3cc4[nH]c(-c5cnn(C)c5)cc4cn3)c(Cl)c2)s1` [Example 150, N-(2-Chloro-4-(2,4-dimethylthiazol-5-yl)phenyl)-2-(1-methyl-1H-pyrazol-4-yl)-1H-pyrrolo[3,2-c]pyridin-6-amine], 0.114 µM corresponded to half-maximal inhibition (IC50). Take `COc1cc(-c2ccc(Nc3cc4[nH]c(-c5cnn(C)c5)cc4cn3)c(Cl)c2)ccn1` [Example 151, N-(2-Chloro-4-(2-methoxypyridin-4-yl)phenyl)-2-(1-methyl-1H-pyrazol-4-yl)-1H-pyrrolo[3,2-c]pyridin-6-amine]: the IC50 (commonly the concentration that inhibits the measured activity by half) came out at 0.182 µM.

In the case of `Cc1ncc(-c2ccc(Nc3cc4[nH]c(-c5cnn(C)c5)cc4cn3)c(Cl)c2)n1C` [Example 152, N-(2-Chloro-4-(1,2-dimethyl-1H-imidazol-5-yl)phenyl)-2-(1-methyl-1H-pyrazol-4-yl)-1H-pyrrolo[3,2-c]pyridin-6-amine], inhibition was half-maximal at 0.005 µM (IC50).

Regarding `Cn1cc(-c2cc3cnc(Nc4ccc(C(=O)N5CC(F)(F)C5)cc4Cl)cc3[nH]2)cn1` [Example 153, (3-Chloro-4-((2-(1-methyl-1H-pyrazol-4-yl)-1H-pyrrolo[3,2-c]pyridin-6-yl)amino)phenyl)(3,3-difluoroazetidin-1-yl)methanone], the IC50 was 0.021 µM. `CS(=O)(=O)c1ccc(Nc2cc3[nH]c(-c4cn[nH]c4)cc3cn2)c(Cl)c1` [Example 154, N-(2-chloro-4-(methylsulfonyl)phenyl)-2-(1H-pyrazol-4-yl)-1H-pyrrolo[3,2-c]pyridin-6-amine] had an IC50 of 0.002 µM. `COc1ccc(Nc2cc3[nH]c(-c4cnn(C)c4)cc3cn2)c(F)c1` [Example 155, N-(2-Fluoro-4-methoxyphenyl)-2-(1-methyl-1H-pyrazol-4-yl)-1H-pyrrolo[3,2-c]pyridin-6-amine]: half-maximal inhibition (IC50) was put at 0.053 µM. In turn, `COc1cc(C(F)(F)F)ccc1Nc1cc2[nH]c(-c3cnn(C)c3)cc2cn1` [Example 156, N-(2-Methoxy-4-(trifluoromethyl)phenyl)-2-(1-methyl-1H-pyrazol-4-yl)-1H-pyrrolo[3,2-c]pyridin-6-amine] came in with an IC50 of 0.164 µM. For the compound `COc1cc(F)ccc1Nc1cc2[nH]c(-c3cnn(C)c3)cc2cn1` [Example 157, N-(4-Fluoro-2-methoxyphenyl)-2-(1-methyl-1H-pyrazol-4-yl)-1H-pyrrolo[3,2-c]pyridin-6-amine], 0.119 µM corresponded to half-maximal inhibition (IC50). The compound `COc1ccc(Nc2cc3[nH]c(-c4cn[nH]c4)cc3cn2)c(OC)c1` [Example 160, N-(2,4-Dimethoxyphenyl)-2-(1H-pyrazol-4-yl)-1H-pyrrolo[3,2-c]pyridin-6-amine] registered an IC50 of 0.019 µM. On to `FC(F)(F)c1ccc(Nc2cc3[nH]c(-c4cn[nH]c4)cc3cn2)cc1` [Example 161, 2-(1H-Pyrazol-4-yl)-N-(4-(trifluoromethyl)phenyl)-1H-pyrrolo[3,2-c]pyridin-6-amine], for which the IC50 worked out at 1.06 µM. Regarding `FC(F)(F)c1ccccc1Nc1cc2[nH]c(-c3cn[nH]c3)cc2cn1` [Example 164, 2-(1H-Pyrazol-4-yl)-N-(2-(trifluoromethyl)phenyl)-1H-pyrrolo[3,2-c]pyridin-6-amine], the IC50 worked out at 0.512 µM. With `COc1cc(OC2CCN(C)CC2)ccc1Nc1cc2[nH]c(-c3cn[nH]c3)cc2cn1` [Example 166, N-(2-Methoxy-4-(1-methylpiperidin-4-yloxy)phenyl)-2-(1H-pyrazol-4-yl)-1H-pyrrolo[3,2-c]pyridin-6-amine] the figure was 0.007 µM. Compound `CN(C)C(=O)c1ccc(Nc2cc3[nH]c(-c4cn[nH]c4)cc3cn2)cc1` [Example 168, 4-(2-(1H-Pyrazol-4-yl)-1H-pyrrolo[3,2-c]pyridin-6-ylamino)-N,N-dimethylbenzamide] gave an IC50 of 0.011 µM. In turn, `CC(=O)N1CCN(c2ccc(Nc3cc4[nH]c(-c5cn[nH]c5)cc4cn3)cc2)CC1` [Example 169, 1-(4-(4-(2-(1H-Pyrazol-4-yl)-1H-pyrrolo[3,2-c]pyridin-6-ylamino)phenyl)piperazin-1-yl)ethanone] came in with an IC50 of 0.08 µM.

The compound `COCCOc1ccc(Nc2cc3[nH]c(-c4cn[nH]c4)cc3cn2)cc1` [Example 170, N-(4-(2-Methoxyethoxy)phenyl)-2-(1H-pyrazol-4-yl)-1H-pyrrolo[3,2-c]pyridin-6-amine] yielded an IC50 of 0.009 µM. The figure for `c1cc(Nc2cc3[nH]c(-c4cn[nH]c4)cc3cn2)ccc1CN1CCOCC1` [Example 171, N-(4-(Morpholinomethyl)phenyl)-2-(1H-pyrazol-4-yl)-1H-pyrrolo[3,2-c]pyridin-6-amine] is 0.009 µM; for `COc1ccc(Nc2cc3[nH]c(-c4cnn(Cc5cc(C)on5)c4)cc3cn2)c(OC)c1` [Example 173, N-(2,4-Dimethoxyphenyl)-2-(1-((5-methylisoxazol-3-yl)methyl)-1H-pyrazol-4-yl)-1H-pyrrolo[3,2-c]pyridin-6-amine] it is 0.207 µM; for `O=S1(=O)CCN(Cc2ccc(Nc3cc4[nH]c(-c5cn[nH]c5)cc4cn3)cc2)CC1` [Example 175, 2-(1H-Pyrazol-4-yl)-N-(4-(thiomorpholinomethyl)phenyl)-1H-pyrrolo[3,2-c]pyridin-6-amine-S,S-dioxide] it is 0.004 µM. For `N#Cc1ccc(Nc2cc3[nH]c(-c4cn[nH]c4)cc3cn2)cc1` [Example 177, 4-(2-(1H-pyrazol-4-yl)-1H-pyrrolo[3,2-c]pyridin-6-ylamino) benzonitrile], the IC50 was 0.15 µM. `CN(C)C(=O)c1ccc(Nc2cc3[nH]c(-c4cnco4)c(Cl)c3cn2)c(Cl)c1` [Example 178, 3-Chloro-4-(3-chloro-2-(oxazol-5-yl)-1H-pyrrolo[3,2-c]pyridin-6-ylamino)-N,N-dimethylbenzamide] gave an IC50 of 0.003 µM.

Turning to `COc1cc(C(=O)N2CC(OC)C2)ccc1Nc1cc2[nH]c(-c3cnco3)cc2cn1` [Example 179, (3-Methoxy-4-(2-(oxazol-5-yl)-1H-pyrrolo[3,2-c]pyridin-6-ylamino)phenyl)(3-methoxyazetidin-1-yl)methanone], the IC50 came to 0.003 µM.

`CN(C)C(=O)c1ccc(Nc2cc3[nH]c(-c4cnco4)cc3cn2)c(Cl)c1` [Example 180, 3-Chloro-N,N-dimethyl-4-(2-(oxazol-5-yl)-1H-pyrrolo[3,2-c]pyridin-6-ylamino)benzamide]: it took 0.005 µM to reach half-maximal inhibition (IC50). Compound `Cn1cc(-c2ccc(Cl)c(Nc3cc4[nH]c(-c5cnn(C)c5)cc4cn3)c2)cn1` [Example 184, N-(2-Chloro-5-(1-methyl-1H-pyrazol-4-yl)phenyl)-2-(1-methyl-1H-pyrazol-4-yl)-1H-pyrrolo[3,2-c]pyridin-6-amine] registered a half-maximal inhibitory concentration (IC50) of 0.548 µM. With `Cn1cncc1-c1ccc(Nc2cc3[nH]c(-c4cnco4)cc3cn2)c(Cl)c1` [Example 185, N-(2-Chloro-4-(1-methyl-1H-imidazol-5-yl)phenyl)-2-(oxazol-5-yl)-1H-pyrrolo[3,2-c]pyridin-6-amine] the figure was 0.005 µM; with `Cc1ncc(-c2ccc(Nc3cc4[nH]c(-c5cnco5)cc4cn3)c(Cl)c2)n1C` [Example 186, N-(2-Chloro-4-(1,2-dimethyl-1H-imidazol-5-yl)phenyl)-2-(oxazol-5-yl)-1H-pyrrolo[3,2-c]pyridin-6-amine], 0.001 µM. In turn, `CS(=O)(=O)n1c(-c2cn[nH]c2)cc2cnc(Nc3ccc(F)cc3)cc21` [Example 187, N-(4-fluorophenyl)-1-(methylsulfonyl)-2-(1H-pyrazol-4-yl)-1H-pyrrolo[3,2-c]pyridin-6-amine] came in with an IC50 of 6.43 µM. With `Fc1ccc(Nc2cc3[nH]c(-c4cn[nH]c4)cc3cn2)cc1` [Example 188, N-(4-fluorophenyl)-2-(1H-pyrazol-4-yl)-1H-pyrrolo[3,2-c]pyridin-6-amine] the figure was 0.14 µM. For `Fc1ccc(Nc2cc3[nH]c(-c4cn[nH]c4)cc3cn2)nc1` [Example 189, N-(5-fluoropyridin-2-yl)-2-(1H-pyrazol-4-yl)-1H-pyrrolo[3,2-c]pyridin-6-amine], the IC50 was 0.159 µM. In the case of `CN(C)C(=O)c1ccc(Nc2cc3[nH]c(-c4cnn(C)c4)c(Cl)c3cn2)c(Cl)c1` [Example 190, 3-Chloro-4-(3-chloro-2-(1-methyl-1H-pyrazol-4-yl)-1H-pyrrolo[3,2-c]pyridin-6-ylamino)-N,N-dimethylbenzamide], the 50% inhibitory concentration (IC50) worked out at 0.0084 µM. `CN(C)C(=O)c1ccc(Nc2cc3c(cn2)c(Cl)c(-c2cnn(C)c2)n3CC2CCCC2)c(Cl)c1` [Example 191, 3-Chloro-4-(3-chloro-1-(cyclopentylmethyl)-2-(1-methyl-1H-pyrazol-4-yl)-1H-pyrrolo[3,2-c]pyridin-6-ylamino)-N,N-dimethylbenzamide] showed an IC50 of 0.097 µM.
